Measured values as given in ChEMBL document CHEMBL1201862, “PubChem BioAssay data set” (2004).
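Test compounds were applied to cells in 96-well plates for 48 hours at 5 doses. GI50 is the concentration that inhibits growth by half.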 Calls of active or inactive are those of the source. Cut-off read from the data, not from the text of the source: active = GI50 up to about 1.1 µM and inactive = higher.

What was measured:
Test in all cases: NCI tumour cell line growth inhibition, 48 h
HT-29 = tested on: HT-29
DU-145 = tested on: DU-145
SW-620 = tested on: SW-620
NCI-H460 = tested on: NCI-H460
HL-60 = tested on: HL-60
786-0 = tested on: 786-0
CCRF-CEM = tested on: CCRF-CEM
A498 = tested on: A498
KM12 = tested on: KM12
HOP-92 = tested on: HOP-92
OVCAR-5 = tested on: OVCAR-5
MDA-N = tested on: MDA-N
M14 = tested on: M14
LOX IMVI = tested on: LOX IMVI
MDA-MB-231 = tested on: MDA-MB-231
RPMI-8226 = tested on: RPMI-8226
SN12C = tested on: SN12C
U-251 = tested on: U-251
UO-31 = tested on: UO-31
SK-MEL-28 = tested on: SK-MEL-28
SF-539 = tested on: SF-539
BT-549 = tested on: BT-549
COLO 205 = tested on: COLO 205
PC-3 = tested on: PC-3
CAKI-1 = tested on: CAKI-1
SR = tested on: SR
UACC-257 = tested on: UACC-257
T47D = tested on: T47D
Malme-3M = tested on: Malme-3M
SK-MEL-2 = tested on: SK-MEL-2
MOLT-4 = tested on: MOLT-4
RXF 393 = tested on: RXF 393
SNB-75 = tested on: SNB-75
MCF7 = tested on: MCF7
K562 = tested on: K562
NCI/ADR-RES = tested on: NCI/ADR-RES
MDA-MB-435 = tested on: MDA-MB-435
HOP-62 = tested on: HOP-62
ACHN = tested on: ACHN
SNB-19 = tested on: SNB-19
A549 = tested on: A549
NCI-H522 = tested on: NCI-H522
SK-MEL-5 = tested on: SK-MEL-5
HCT-116 = tested on: HCT-116
EKVX = tested on: EKVX
OVCAR-8 = tested on: OVCAR-8
NCI-H23 = tested on: NCI-H23
SK-OV-3 = tested on: SK-OV-3
HCT-15 = tested on: HCT-15
UACC-62 = tested on: UACC-62
SF-295 = tested on: SF-295
SF-268 = tested on: SF-268
OVCAR-3 = tested on: OVCAR-3
OVCAR-4 = tested on: OVCAR-4
HCC 2998 = tested on: HCC 2998
TK-10 = tested on: TK-10
Hs-578T = tested on: Hs-578T
NCI-H226 = tested on: NCI-H226
IGROV-1 = tested on: IGROV-1

SMILES: CC(C)(CN1CCCCC1)C(=O)/C=C/c1c(Cl)cccc1Cl
- GI50 (HT-29): 1380 nM (inactive)
- GI50 (DU-145): 769 nM (active)
- GI50 (SW-620): 927 nM (active)
- GI50 (NCI-H460): 1610 nM (inactive)
- GI50 (HL-60): 1610 nM (inactive)
- GI50 (786-0): 1310 nM (inactive)
- GI50 (CCRF-CEM): 520 nM (active)
- GI50 (A498): 1570 nM (inactive)
- GI50 (KM12): 867 nM (active)
- GI50 (HOP-92): 1050 nM (active)
- GI50 (OVCAR-5): 1480 nM (inactive)
- GI50 (MDA-N): 792 nM (active)
- GI50 (M14): 863 nM (active)
- GI50 (LOX IMVI): 811 nM (active)
- GI50 (MDA-MB-231): 789 nM (active)
- GI50 (RPMI-8226): 3890 nM (inactive)
- GI50 (SN12C): 1490 nM (inactive)
- GI50 (U-251): 1380 nM (inactive)
- GI50 (UO-31): 971 nM (active)
- GI50 (SK-MEL-28): 1560 nM (inactive)
- GI50 (SF-539): 2080 nM (inactive)
- GI50 (BT-549): 1860 nM (inactive)
- GI50 (COLO 205): 1570 nM (inactive)
- GI50 (PC-3): 1910 nM (inactive)
- GI50 (CAKI-1): 1080 nM (active)
- GI50 (SR): 420 nM (active)
- GI50 (UACC-257): 2000 nM (inactive)
- GI50 (T47D): 421 nM (active)
- GI50 (Malme-3M): 489 nM (active)
- GI50 (SK-MEL-2): 1490 nM (inactive)
- GI50 (MOLT-4): 918 nM (active)
- GI50 (RXF 393): 701 nM (active)
- GI50 (SNB-75): 735 nM (active)
- GI50 (MCF7): 1290 nM (inactive)
- GI50 (K562): 736 nM (active)
- GI50 (NCI/ADR-RES): 1860 nM (inactive)
- GI50 (MDA-MB-435): 700 nM (active)
- GI50 (HOP-62): 1790 nM (inactive)
- GI50 (ACHN): 1490 nM (inactive)
- GI50 (SNB-19): 2440 nM (inactive)
- GI50 (A549): 1950 nM (inactive)
- GI50 (NCI-H522): 124 nM (active)
- GI50 (SK-MEL-5): 1420 nM (inactive)
- GI50 (HCT-116): 637 nM (active)
- GI50 (EKVX): 834 nM (active)
- GI50 (OVCAR-8): 2180 nM (inactive)
- GI50 (NCI-H23): 1350 nM (inactive)
- GI50 (SK-OV-3): 2490 nM (inactive)
- GI50 (HCT-15): 879 nM
- GI50 (UACC-62): 1290 nM (inactive)
- GI50 (SF-295): 2640 nM (inactive)
- GI50 (SF-268): 1130 nM (inactive)
- GI50 (OVCAR-3): 955 nM (active)
- GI50 (OVCAR-4): 1730 nM (inactive)
- GI50 (HCC 2998): 1830 nM (inactive)
- GI50 (TK-10): 627 nM (active)
- GI50 (Hs-578T): 2170 nM (inactive)
- GI50 (NCI-H226): 2650 nM (inactive)
- GI50 (IGROV-1): 192 nM (active)
